In data set [1] the test system is Escherichia coli. Put plainly: Antibacterial activity against Escherichia coli ATCC 35218 assessed as bacterial growth inhibition incubated for 18 hrs by agar dilution method. In kind it is functional. (In agar dilution the substance is mixed into plates at graded concentrations.)
The test system of data set [2] is Escherichia coli. Nature of the data set: Antibacterial activity against Escherichia coli assessed as bacterial growth inhibition incubated for 16 to 24 hrs by absorbance analysis. Format: functional. The settings on record: time 16-24 hrs.
Data set [3] deals with Escherichia coli. Put plainly: Antibacterial activity against Escherichia coli assessed as bacterial growth inhibition incubated for 18 to 20 hrs by agar dilution method. In kind it is functional. To be noted: time 18-20 hrs.
Data set [4] relates to Escherichia coli. Put plainly: Antibacterial activity against Escherichia coli NCTC 10418 assessed as bacterial growth inhibition incubated for 18 to 20 hrs by agar dilution method. In kind it is functional. The settings on record: time 18-20 hrs.
In data set [5] the test system is Escherichia coli. Put plainly: Antibacterial activity against Escherichia coli NIHJ JC-2 assessed as bacterial growth inhibition measured after 24 hrs by agar dilution method. Format: functional.
Data set [6] relates to Escherichia coli. Put plainly: Antibacterial activity against Escherichia coli 2010-05 assessed as bacterial growth inhibition measured after 24 hrs by agar dilution method. In kind it is functional.
Data set [7] has as its system Escherichia coli. Put plainly: Antibacterial activity against Escherichia coli NIHJ assessed as bacterial growth inhibition measured after 24 hrs by agar dilution method. Format: functional.
The test system of data set [8] is Escherichia coli. Put plainly: Antibacterial activity against Escherichia coli 2010-29 assessed as bacterial growth inhibition measured after 24 hrs by agar dilution method. Format: functional.
The nature of data set [9]: Half life in mouse at 20 mg/kg, po. In kind it is ADME, organism-based. To be noted: in vivo.
Data set [10] can be described thus: AUC(0 to infinity) in mouse at 20 mg/kg, po. In kind it is ADME, organism-based. On the set-up: dose 20 mg/kg, route po. The settings on record: in vivo.
Data set [11] deals with Escherichia coli. Put plainly: Antibacterial activity against Escherichia coli KC-14 infected in po dosed mouse assessed as bacterial growth inhibition. In kind it is functional. To be noted: Escherichia coli, KC-14, po, read-out: ED50.
A short description of data set [12]: Cmax in mouse at 20 mg/kg, po. Format: ADME, organism-based. To be noted: in vivo. On the set-up: dose 20 mg/kg, route po.
In data set [13] the test system is Escherichia coli. Put plainly: Antibacterial activity against Escherichia coli KC-14 assessed as bacterial growth inhibition. Format: functional.
For data set [14], the system named is Escherichia coli. Put plainly: Antibacterial activity against Escherichia coli ATCC 700603 assessed as bacterial growth inhibition by agar dilution method. In kind it is functional.
Data set [15] concerns Escherichia coli. Nature of the data set: Antibacterial activity against Escherichia coli H560 assessed as bacterial growth inhibition. In kind it is functional.
The subject of data set [16] is Escherichia coli. Nature of the data set: Antibacterial activity against Escherichia coli assessed as bacterial growth inhibition by agar dilution method. Format: functional.
Data set [17] concerns Escherichia coli. Put plainly: Antibacterial activity against Escherichia coli NCDC 134 assessed as bacterial growth inhibition. Format: functional.
The test system of data set [18] is Escherichia coli. Put plainly: Antibacterial activity against Escherichia coli TolC assessed as bacterial growth inhibition. Format: functional.

Converted amounts (≈) assume the structure as drawn.

On to `COc1cccc(CO/N=C2\CCN(c3c(F)cc4c(=O)c(C(=O)O)cn(C5CC5)c4c3OC)CC2N)c1` (configuration not stated), for which the MIC (usually the lowest concentration that inhibits growth of the organism) in the data set with Escherichia coli [1] is less than 0.008 µg/mL.

With `Cc1[nH]c2ccc(Br)cc2c(=O)c1CC(=O)O`, the MIC with Escherichia coli [2] is 8.97 µg/mL (≈ 30.3 µM).

Take `Cc1[nH]c2c(C)cc([N+](=O)[O-])cc2c(=O)c1CC(=O)O`: the MIC in the data set with Escherichia coli [2] was 8.97 µg/mL (≈ 32.5 µM).

For the compound `Cc1[nH]c2ccc(Cl)cc2c(=O)c1CC(=O)O`, the MIC in the data set with Escherichia coli [2] came to 8.97 µg/mL (≈ 35.6 µM).

In the case of `CCn1cc(C(=O)O)c(=O)c2cc(F)c(N3CCN(CN4C(=O)/C(=N\c5ncc(Cc6cc(OC)c(OC)c(OC)c6)c(N)n5)c5ccccc54)CC3)cc21`, the MIC in the data set on Escherichia coli [3] was determined as 0.0763 µg/mL (≈ 0.102 µM).

In the case of `CCn1cc(C(=O)O)c(=O)c2cc(F)c(N3CCN(CN4C(=O)C(=O)c5cc(Br)ccc54)CC3)cc21`, in the data set with Escherichia coli [4], the MIC was no more than 0.018 µg/mL.

For the compound `Cc1[nH]c2ccccc2c(=O)c1CC(=O)O`, the minimal inhibitory concentration (MIC) in the data set with Escherichia coli [2] is 8.97 µg/mL (≈ 41.3 µM).

With `CNC1CN(c2c(F)c(N)c3c(=O)c(C(=O)O)cn(-c4cc(N)c(F)cc4CO)c3c2Cl)C1`, the minimum inhibitory concentration (MIC) was 0.008 µg/mL (≈ 0.0167 µM) with Escherichia coli [5], 1 µg/mL (≈ 2.08 µM) in the data set on Escherichia coli [6], 0.008 µg/mL (≈ 0.0167 µM) in the data set with Escherichia coli [7] and 1 µg/mL (≈ 2.08 µM) in the data set with Escherichia coli [8].

With `COc1cc(Cc2cnc(/N=C3\C(=O)N(CN4CCN(c5cc6c(cc5F)c(=O)c(C(=O)O)cn6C5CC5)CC4)c4ccccc43)nc2N)cc(OC)c1OC`, the MIC in the data set on Escherichia coli [3] was 0.0095 µg/mL (≈ 0.0125 µM).

As to `COc1cccc(CO/N=C2\CCN(c3c(F)cc4c(=O)c(C(=O)O)cn(C5CC5)c4c3OC)CC2N)c1OC` (configuration not stated), the MIC in the data set with Escherichia coli [1] was less than 0.008 µg/mL.

Regarding `COc1ccccc1CO/N=C1\CCN(c2c(F)cc3c(=O)c(C(=O)O)cn(C4CC4)c3c2OC)CC1N` (configuration not stated), the MIC with Escherichia coli [1] is less than 0.008 µg/mL.

Take `COc1cc(Cc2cnc(/N=C3\C(=O)N(CN4CCN(c5c(F)cc6c(=O)c(C(=O)O)cn(C7CC7)c6c5OC)CC4C)c4ccccc43)nc2N)cc(OC)c1OC` (configuration not stated): the MIC in the data set on Escherichia coli [3] worked out at 0.02 µg/mL (≈ 0.0248 µM).

Take `COc1c(N2CCN(C)CC2)c(F)cc2c(=O)c(C(=O)O)c3n(c12)C(C)S3` (configuration not stated): the half-life (in general, the time in which the quantity being followed falls by half) in data set [9] is 4.9 h. The AUC(0-inf) – broadly, total exposure, with the tail of the curve extrapolated – in data set [10] turned out to be 2700 ng·h/mL. In the data set with Escherichia coli [11], the ED50 – broadly, the midpoint of the dose-response relation – worked out at 1.28 mg/kg. Also, the Cmax (commonly the highest concentration seen after dosing) in data set [12] came to 840 ng/mL. Moreover, the MIC with Escherichia coli [13] was determined as 0.1 µg/mL (≈ 0.254 µM).

`COc1c(N2CCN(C)CC2)c(F)cc2c(=O)c(C(=O)O)c3n(c12)C(CF)S3` (configuration not stated): the half-life in data set [9] is 1.2 h. Further, in data set [10], the AUC(0-inf) was 3500 ng·h/mL. The ED50 in the data set on Escherichia coli [11] came to 0.76 mg/kg. The compound also gave a Cmax in data set [12] of 3200 ng/mL. Besides, the MIC in the data set on Escherichia coli [13] amounted to 0.025 µg/mL (≈ 0.0608 µM).

In [9], `CN1CCN(c2cc3c(cc2F)c(=O)c(C(=O)O)c2n3C(CF)S2)CC1` (configuration not stated) had a half-life of 1.5 h. Further, in data set [10], the AUC(0-inf) is 6900 ng·h/mL. Moreover, the 50% effective dose (ED50) in the data set on Escherichia coli [11] is 0.85 mg/kg. For the same compound, the Cmax in data set [12] was determined as 4400 ng/mL. Also, the MIC in the data set with Escherichia coli [13] is 0.05 µg/mL (≈ 0.131 µM).

Consider `CCn1cc(C(=O)O)c(=O)c2cc(F)c(N3CCN(CN4C(=O)/C(=N/NC(N)=S)c5cc(Br)ccc54)CC3)cc21`, for which the minimal inhibitory concentration (MIC) in the data set with Escherichia coli [4] was no more than 0.018 µg/mL.

On to `CCn1cc(C(=O)O)c(=O)c2cc(F)c(N3CCN(CN4C(=O)/C(=N/NC(N)=S)c5cc(Cl)ccc54)CC3)cc21`, for which the MIC in the data set on Escherichia coli [4] was no more than 0.018 µg/mL.

`CCn1cc(C(=O)O)c(=O)c2cc(F)c(N3CCN(CN4C(=O)/C(=N/NC(N)=S)c5ccccc54)CC3)cc21`: the minimal inhibitory concentration (MIC) in the data set with Escherichia coli [4] was no more than 0.018 µg/mL.

With `Cc1[nH]c2ccc([N+](=O)[O-])cc2c(=O)c1CC(=O)O`, the MIC in the data set with Escherichia coli [2] was determined as 8.97 µg/mL (≈ 34.2 µM).

Regarding `CCn1cc(C(=O)O)c(=O)c2cc(F)c(N3CCN(CN4C(=O)/C(=N\c5ncc(Cc6cc(OC)c(OC)c(OC)c6)c(N)n5)c5ccccc54)C(C)C3)c(F)c21` (configuration not stated), the MIC with Escherichia coli [3] was 0.305 µg/mL (≈ 0.39 µM).

With `NC1CCN(c2c(F)cc3c(=O)c(C(=O)O)cn(C4CC4)c3c2Cl)C1` (configuration not stated) [CLINAFLOXACIN], in the data set on Escherichia coli [14], the MIC was 1 µg/mL (≈ 2.73 µM).

For the compound `Cc1c(N2C[C@@H](F)[C@@H](C3(N)CC3)C2)c(F)c(N)c2c(=O)c(C(=O)O)cn([C@@H]3C[C@@H]3F)c12` [DQ-113], in the data set on Escherichia coli [15], the minimum inhibitory concentration (MIC) was no more than 0.003 µg/mL.

Take `C[C@H]1NCc2cc(-c3ccc4c(=O)c(C(=O)O)cn(C5CC5)c4c3OC(F)F)ccc21` [GARENOXACIN]: the MIC90 (commonly the lowest concentration that inhibits either 90% of growth or 90% of the strains tested, depending on the study) in the data set on Escherichia coli [16] was determined as 4 µg/mL (≈ 9.38 µM).

For `COc1c(N2CCNC(C)C2)c(F)cc2c(=O)c(C(=O)O)cn(C3CC3)c12` (configuration not stated) [GATIFLOXACIN], the MIC90 with Escherichia coli [16] was determined as 4 µg/mL (≈ 10.7 µM). The MIC with Escherichia coli [17] was found to be 100 µg/mL (≈ 266 µM); in the data set with Escherichia coli [15] it was 0.006 µg/mL (≈ 0.016 µM); in the data set on Escherichia coli [3], 0.015 µg/mL (≈ 0.04 µM).

With `CCn1cc(C(=O)O)c(=O)c2cc(F)c(N3CCNC(C)C3)c(F)c21` (configuration not stated) [LOMEFLOXACIN], in the data set on Escherichia coli [3], the MIC is 0.02 µg/mL (≈ 0.0569 µM).

Take `COc1c(N2C[C@@H]3CCCN[C@@H]3C2)c(F)cc2c(=O)c(C(=O)O)cn(C3CC3)c12` [MOXIFLOXACIN]: the MIC was found to be 11.5 µg/mL (≈ 28.7 µM) with Escherichia coli [18] and 0.006 µg/mL (≈ 0.0149 µM) in the data set on Escherichia coli [15]. Also, the MIC90 in the data set with Escherichia coli [16] was found to be 4 µg/mL (≈ 9.96 µM).

As for `NC1CCN(c2nc3c(cc2F)c(=O)c(C(=O)O)cn3-c2ccc(F)cc2F)C1` (configuration not stated) [TOSUFLOXACIN], the MIC with Escherichia coli [15] was no more than 0.003 µg/mL.
